Reference: patent US20060235035A1, “Novel methoxybenzamibe compounds for use in mch receptor related disorders” (7TM Pharma A/S, priority 2002, published 2006)

What was measured:
human MCH-1 receptor [1] = target: T1, human MCH-1 receptor (Homo sapiens, UniProt Q99705); test: Phosphatidylinositol assay (IP3); assay type: cell-based; conditions: phosphatidylinositol turnover stimulated by 10 nM MCH; COS-7 or CHO cells expressing human MCH-1 receptor
T1 construct: expressed in transfected cells; host or cells: transiently transfected COS-7 cells or stably transfected CHO cells (pcDNA3.1)
T1 sequence (Q99705 whole entry): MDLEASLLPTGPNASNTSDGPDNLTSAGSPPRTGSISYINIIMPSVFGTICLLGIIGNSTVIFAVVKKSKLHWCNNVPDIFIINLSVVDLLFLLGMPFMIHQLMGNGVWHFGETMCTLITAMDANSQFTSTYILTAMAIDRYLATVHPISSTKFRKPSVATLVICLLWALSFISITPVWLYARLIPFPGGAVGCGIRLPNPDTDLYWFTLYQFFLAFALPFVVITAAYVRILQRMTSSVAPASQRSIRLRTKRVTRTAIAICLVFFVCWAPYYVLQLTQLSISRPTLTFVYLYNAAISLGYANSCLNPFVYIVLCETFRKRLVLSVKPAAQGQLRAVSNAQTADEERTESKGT
Experimental: Transfections and Tissue Culture—The cDNA encoding the human MCH-1 receptor was cloned from a human brain cDNA library and cloned into the eukaryotic expression vector pcDNA3.1 (Invitrogen). Assays were performed on transiently transfected COS-7 cells or stably transfected CHO (Chinese Hamster Ovary) cells, expressing the human MCH-1 receptor in pcDNA3.1. […] Clones were screened by a MCH receptor radioligand binding assay (as described below).
Phosphatidylinositol assay—To assay phosphatidylinositol turnover, transiently transfected COS-7 cells or stably transfected CHO cells, expressing human MCH-1 receptor (2×10^5 cells/well) were incubated for 24 h with 5 μCi of [^3H]-myo-inositol (Amersham Pharmacia Biotech) in 0.5 ml inositol-free culture medium. Cells were washed twice in PI-buffer: 20 mM HEPES, pH 7.4, supplemented with 140 mM NaCl, 5 mM KCl, 1 mM MgSO4, 1 mM CaCl2, 10 mM glucose, 0.02% (w/v) bovine serum; and were incubated in 0.5 ml PI-buffer supplemented with 10 mM LiCl at 37° C. for 45 min. Phosphatidylinositol turnover was stimulated by submaximal concentrations of MCH, i.e. 10 nM in the presence of increasing amounts of ligand. The ligand was added 5 min. before adding the agonist (MCH). Cells were extracted with 10 mM ice-cold Formic acid, and the generated [^3H]-inositol phosphates were purified on Bio-Rad AG 1-X8 anion-exchange resin. Determinations were made in duplicate. PI data were analyzed and IC50 values determined by non-linear regression using the Prism software (GraphPad software, San Diego).

human MCH-1 receptor [2] = target: T1, human MCH-1 receptor; test: Radioligand binding assay ([125I]-MCH competition, whole cells); conditions: competition with [125I]-MCH; COS-7 or CHO cells expressing human MCH-1 receptor
Experimental: Transfections and Tissue Culture—The cDNA encoding the human MCH-1 receptor was cloned from a human brain cDNA library and cloned into the eukaryotic expression vector pcDNA3.1 (Invitrogen). Assays were performed on transiently transfected COS-7 cells or stably transfected CHO (Chinese Hamster Ovary) cells, expressing the human MCH-1 receptor in pcDNA3.1. Stable MCH-1 receptor transfectants of CHO cells were obtained using 5 μg plasmid cDNA and a standard calcium phosphate transfection method (Johansen et al., 1990; Gether et al., 1992) with subsequent selection in 1 mg/ml G418 (Life Technology). Clones were screened by a MCH receptor radioligand binding assay (as described below). Stably transfected CHO cells were maintained in RPMI 1640 culture medium (Invitrogen), supplemented with 10% fetal calf serum (Invitrogen), 100 U/ml penicillin, 100 μg/ml streptomycin (Life Technology), and 500 μg/ml G418 (Life Technology). COS-7 cells were grown in Dulbecco's modified Eagle's medium (DMEM) 1885 (Invitrogen) supplemented with 10% fetal calf serum, 100 U/ml penicillin, 100 μg/ml streptomycin, and were transiently transfected by a standard calcium phosphate transfection method (Johansen et al., 1990; Gether et al., 1992) two days before assay.
Radioligand Binding Assay—Transiently transfected COS-7 cells or stably transfected CHO cells, expressing human MCH-1 receptor were seeded in multi-well culture plates one day before the assay. The number of cells per well was determined by the apparent expression efficiency of the cell line aiming at 5-10% binding of the added radioligand. Cells were assayed by competition binding for 3 hours at room temperature using […] [^125I]-MCH (Amersham Pharmacia Biotech) plus variable amounts of unlabeled ligand in 0.5 ml of a 25 mM Hepes buffer, pH 7.4, supplemented with 10 mM MgCl2, 5 mM MnCl2, 10 mM NaCl, 0.1% (w/v) bovine serum albumin (BSA), 100 μg/ml bacitracin. The assay was performed in duplicate. Nonspecific binding was determined as the binding in the presence of 1 μM MCH (Bachem). Binding data were analyzed and IC50 values determined by non-linear regression using the Prism software (GraphPad software, San Diego). Values of the dissociation and inhibition constants (Kd and Ki) were estimated from competition binding using the equations Kd=IC50−L and Ki=IC50/(1+L/Kd), respectively, where L is the concentration of radioligand.

hMCHreceptor = target: T2, hMCHreceptor (Homo sapiens, UniProt Q99705); test: Scintillation Proximity Assay (SPA), [125I]-MCH binding to CHO-K1 membranes; conditions: CHO-K1 membranes expressing hMCH receptor
T2 construct: purchased Euroscreen ES-370-M; host or cells: CHO-K1 membranes
T2 sequence (Q99705 whole entry): as above
Experimental: Scintillation Proximity Assay (SPA)—Measurement of [^125I]-MCHbinding was performed in duplicates by incubating membranes and beads with tracer in the presences of various concentrations of test compounds (10^−8 to 10^−4 M) in DMSO (3 μl) at room temperature for two hours. Membranes and beads were pre-incubated for 20 min. The binding buffer contained 50 mM Tris (pH 7.4), 8 mM MgCl2, 12% glycerol, 0.1% (w/v) bovine serum albumin (BSA), and protease inhibitors (Complete protease inhibitor cocktail tablets, Roche). A final [^125I]-MCH(2000 Ci/mmol; Amersham Pharmacia Biotech) concentration of 75.000 cpm/well (33.8 nCi) was applied and PEI-treated WGA-coupled PVT SPA beads, type B from Amersham Pharmacia Biotech were used at a final concentration of 0.4 mg/well. Moreover, CHO-K1 membranes expressing the hMCHreceptor were purchased from Euroscreen (ES-370-M) and a final concentration of 2 μg/well were used. Binding data were analyzed and IC50 values determined by non-linear regression using the Prism software (GraphPad software, San Diego). Values of the inhibition constant (Ki) were estimated from competition binding using the equation Ki=IC50/([…]), where L and Kd are the concentration and affinity constant, respectively, of the radioligand.

Compound | IC50 (human MCH-1 receptor [1]) [nM] | IC50 (human MCH-1 receptor [2]) [nM] | IC50 (hMCHreceptor) [nM]
COc1cc(NC(=O)Nc2cccc(Nc3ccccc3)c2)ccc1C(=O)NCCCN1CCCCC1 [Ex 89, 2-Methoxy-4-[3-(3-phenylamino-phenyl)-ureido]-N-(3-piperidin-1-yl-propyl)-benzamide] | 22 | 12 | –
CCCCN(CCCC)CCCNC(=O)c1ccc(N(C)C(=O)Nc2ccc(Oc3ccccc3)cc2)cc1OC [Ex 134, N-(3-Dibutylamino-propyl)-2-methoxy-4-[1-methyl-3-(4-phenoxy-phenyl)-ureido]-benzamide] | 670 | 69 | –
CCN(CC)CCNC(=O)c1ccc(NC(=O)Nc2ccc(OC(F)(F)F)cc2)cc1 [Ex 47, N-(2-Diethylamino-ethyl)-4-[3-(4-trifluoromethoxy-phenyl)-ureido]-benzamide] | 290 | 70 | –
CCN(CC)CCNC(=O)c1ccc(N(C)C(=O)Nc2ccc(Oc3ccccc3)cc2)cc1OC [Ex 33, N-(2-Diethylamino-ethyl)-2-methoxy-4-[1-methyl-3-(4-phenoxy-phenyl)-ureido]-benzamide] | 290 | 48 | –
CCN(CC)CCNC(=O)c1ccc(NC(=O)Nc2ccc(OC(F)(F)F)cc2)cc1OC [Ex 48, N-(2-Diethylamino-ethyl)-2-methoxy-4-[3-(4-trifluoromethoxy-phenyl)-ureido]-benzamide] | 190 | 96 | –
COc1cc(NC(=O)Nc2ccc(Oc3ccccc3)cc2)ccc1C(=O)NCCCN1CCOCC1 [Ex 23, 2-Methoxy-N-(3-morpholin-4-yl-propyl)-4-[3-(4-phenoxy-phenyl)-ureido]-benzamide] | 770 | 210 | –
COc1cc(NC(=O)Nc2ccc3c(c2)CCC3)ccc1C(=O)NC1CCN(Cc2ccccc2)CC1 [Ex 137, N-(1-Benzyl-piperidin-4-yl)-4-(3-indan-5-yl-ureido)-2-methoxy-benzamide] | – | 300 | –
COc1cc(NC(=O)c2ccc(-c3ccccc3)cc2)ccc1C(=O)NCCN(C)C [Ex 2, Biphenyl-4-carboxylic acid[4-(2-dimethylamino-ethylcarbamoyl)-3-methoxy-phenyl]-amide] | – | 1480 | –
COc1cc(NC(=O)Nc2ccc(Oc3ccccc3)cc2)c(F)cc1C(=O)NCCCN1CCCCC1 [Ex 186, 5-Fluoro-2-methoxy-4-[3-(4-phenoxy-phenyl)-ureido]-N-(3-piperidin-1-yl-propyl)-benzamide] | – | 1000 | –
COc1cc(NC(=O)Nc2cccc(Oc3ccccc3)c2)ccc1C(=O)NCCCN1CCOCC1 [Ex 121, 2-Methoxy-N-(3-morpholin-4-yl-propyl)-4-[3-(3-phenoxy-phenyl)-ureido]-benzamide] | – | 74 | –
COc1cc(NC(=O)Nc2ccc(Nc3ccc(C(F)(F)F)cc3)cc2)ccc1C(=O)NCCCN1CCOCC1 [Ex 139, 2-Methoxy-N-(3-morpholin-4-yl-propyl)-4-{3-[4-(4-trifluoromethyl-phenylamino)-phenyl]-ureido}-benzamide] | – | 1410 | –
COc1cc(NC(=O)Nc2ccc(Oc3ccccn3)cc2)ccc1C(=O)NCCCN1CCOCC1 [Ex 136, 2-Methoxy-N-(3-morpholin-4-yl-propyl)-4-(3-[4-(pyridin-2-yloxy)-phenyl]-ureido)-benzamide] | – | 4450 | –
COc1cc(NC(=O)Nc2ccc(Oc3ccccc3)cc2)ccc1C(=O)NCCCN1CCCCC1 [Ex 95, 2-Methoxy-4-[3-(4-phenoxy-phenyl)-ureido]-N-(3-piperidin-1-yl-propyl)-benzamide] | 240 | 44 | –
COc1cc(NC(=O)Nc2ccc(C(F)(F)F)cc2)ccc1C(=O)NCCN1CCOCC1 [Ex 67, 2-Methoxy-N-(2-morpholin-4-yl-ethyl)-4-[3-(4-trifluoromethyl-phenyl)-ureido]-benzamide] | 220 | – | 27
COc1cc(NC(=O)Nc2ccc(Oc3ccc(F)cc3)cc2)ccc1C(=O)NCCCN1CCOCC1 [Ex 135, 4-{3-[4-(4-Fluoro-phenoxy)-phenyl]-ureido}-2-methoxy-N-(3-morpholin-4-yl-propyl)-benzamide] | 1600 | 450 | –
COc1cc(NC(=O)Nc2ccc(Oc3ccccc3)cc2)ccc1C(=O)NC1CCN(Cc2ccccc2)CC1 [Ex 16, N-(1-Benzyl-piperidin-4-yl)-2-methoxy-4-[3-(4-phenoxy-phenyl)-ureido]-benzamide] | 1800 | 220 | –
COc1cc(NC(=O)Nc2ccc(Oc3ccccc3)cc2)ccc1C(=O)NCCN(C)C [Ex 8, N-(2-Dimethylamino-ethyl)-2-methoxy-4-[3-(4-phenoxy-phenyl)-ureido]-benzamide] | 2300 | 380 | –
